Article PMC7781311 (bioRxiv, 2021)
Where two headings read alike, the source gives them in different places.

Experiments:
[1] = tested on: SARS-CoV-2-S pseudotyped particles (PP); type: cell-based; conditions: Calu-3 cells
[2] = tested on: Calu3 cells; conditions: same protocol without PP, ATP content
[3] = in vitro; conditions: human
[4] = target: TMPRSS2 (Homo sapiens, UniProt O15393); assay: TMPRSS2 biochemical; conditions: enzyme assay, maximal efficacy
TMPRSS2, sequence (O15393 whole entry): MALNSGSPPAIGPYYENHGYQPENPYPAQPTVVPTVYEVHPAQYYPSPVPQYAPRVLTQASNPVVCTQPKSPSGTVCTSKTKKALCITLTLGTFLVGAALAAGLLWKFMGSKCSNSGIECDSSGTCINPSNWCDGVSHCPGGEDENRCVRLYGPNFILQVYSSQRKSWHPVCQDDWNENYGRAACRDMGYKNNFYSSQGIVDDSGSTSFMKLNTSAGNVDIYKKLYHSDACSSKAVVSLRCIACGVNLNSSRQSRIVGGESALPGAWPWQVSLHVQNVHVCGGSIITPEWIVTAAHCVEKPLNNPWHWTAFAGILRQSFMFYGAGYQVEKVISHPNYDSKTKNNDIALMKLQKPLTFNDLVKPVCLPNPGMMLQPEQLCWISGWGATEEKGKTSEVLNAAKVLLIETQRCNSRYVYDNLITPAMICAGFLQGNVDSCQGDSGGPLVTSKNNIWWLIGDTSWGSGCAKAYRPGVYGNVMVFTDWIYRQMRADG

## CCOC(=O)c1ccc(OC(=O)CCCCCNC(=N)N)cc1 [NCGC00025297, Gabexate]
[1]; listed as Gabexate
  Activity in the PP entry assay (in words): inactive
[1]; listed as gabexate
  Activity in the PP entry assay (in words): did not exhibit activity
[2]
  Calu3 cytotoxicity Efficacy: 0%

## N=C(N)c1ccc2cc(OC(=O)c3ccc(N=C(N)N)cc3)ccc2c1 [NCGC00160398, Nafamostat]
[1]
  Activity in the PP entry assay (in words): high potency and efficacy
[3]
  IC50: 15.8 µM
[2]
  Calu3 cytotoxicity Efficacy: 38.74%

## CN(C)C(=O)COC(=O)Cc1ccc(OC(=O)c2ccc(NC(=N)N)cc2)cc1 [NCGC00167526, Camostat]
[1]
  Activity in the PP entry assay (in words): high potency and efficacy
[2]
  Calu3 cytotoxicity Efficacy: 0%
[4]
  TMPMSS2 Efficacy: 100%

## COC(=O)[C@H](Cc1cccc(C(=N)N)c1)[C@@H](C)NC(=O)c1ccc(-c2cc[n+]([O-])cc2)cc1 [NCGC00378763, Otamixaban]
[1]
  Activity in the PP entry assay (in words): efficient activity
[2]
  Calu3 cytotoxicity Efficacy: 0%

## C=Cc1cc(C(=O)Nc2ccc(C(=N)N)cc2)c(-c2ccc(C(=O)NCC3CC3)nc2C(=O)O)cc1OC [NCGC00522636, Avoralstat]
[1]
  Activity in the PP entry assay (in words): comparable inhibition activity to camostat
